Assay results as given in ChEMBL document CHEMBL1151292, “Antineoplastic activity and cytotoxicity of flavones, isoflavones, and flavanones” (1979).
Converted amounts (≈) assume the structure as drawn. The source made the active and inactive calls. How the calls were made is not given here.

These compounds were tested on KB (assay: Cytotoxicity against human KB cells). Conditions: read-out: ED50 (the source's name).
Type: functional
For `COc1ccc2c(=O)c(C)c(-c3ccccc3)oc2c1CN(C)C.Cl` [DIMEFLINE HYDROCHLORIDE], the EC50 was 22 µg/mL. `COc1ccc(C2(OC)Oc3cc(OC)ccc3C(=O)C2(O)O)cc1` (stereo unspecified) was tested, and the EC50 was 2.8 µg/mL (≈ 8.08 µM). Compound `Cc1c(O)cc2c(c1O)C(=O)CC(c1ccc(O)cc1)O2` (stereo unspecified) has an EC50 of 57 µg/mL (≈ 199 µM). `COc1cc(OC)c2c(=O)c(OC)c(-c3ccc(OC)c(OC)c3)oc2c1` showed an EC50 of 25 µg/mL (≈ 67.1 µM). `COc1cc(O)c2c(=O)cc(-c3ccc(OC)c(O)c3)oc2c1` showed an EC50 of 19 µg/mL (≈ 60.5 µM). Work on `COc1c(OC)c(OC)c2c(=O)cc(-c3ccc(OC(C)C)cc3)oc2c1OC` yielded an EC50 of over 100 µg/mL. `C[C@@H]1O[C@@H](OC[C@H]2O[C@@H](Oc3c(-c4ccc(O)c(O)c4)oc4cc(O)cc(O)c4c3=O)[C@H](O)[C@@H](O)[C@@H]2O)[C@H](O)[C@H](O)[C@H]1O.Cl` was tested, and the EC50 was over 100 µg/mL. For `COc1cc2c(=O)cc(-c3ccc(OC)c(OC)c3)oc2cc1O`, the EC50 was 45 µg/mL (≈ 137 µM). With `Cc1c(-c2ccccc2)oc2c(C(=O)OCCN3CCCCC3)cccc2c1=O.Cl` [FLAVOXATE HYDROCHLORIDE] the EC50 was over 100 µg/mL. `COc1ccc(-c2oc3cc(O)c(O)c(O)c3c(=O)c2O)cc1OC` showed an EC50 of 27 µg/mL (≈ 78 µM). `COc1cc(O)c2c(c1)OC(c1ccc(O)cc1)CC2=O` (stereo unspecified) showed an EC50 of 13 µg/mL (≈ 45.4 µM). With `O=c1cc(-c2ccc(O)c(O)c2)oc2c([C@@H]3O[C@H](CO)[C@@H](O)[C@H](O)[C@H]3O)c(O)cc(O)c12` [ORIENTIN] the EC50 was 25 µg/mL (≈ 55.8 µM). `C=CCOc1ccc(-c2cc(=O)c3c(OC)c(OC)c(OC)c(OC)c3o2)cc1` showed an EC50 of 26 µg/mL (≈ 65.3 µM). With `COc1c(-c2ccc(O)c(O)c2)oc2cc(O)cc(O)c2c1=O` [3-O-METHYLQUERCETIN] the EC50 was 17 µg/mL (≈ 53.8 µM). Compound `O=c1c(Cl)c(-c2ccccc2)oc2ccc(Cl)cc12` has an EC50 of over 100 µg/mL. For `O=c1cc(-c2cccc(O)c2)oc2ccccc12`, the EC50 was 8.5 µg/mL (≈ 35.7 µM). In the case of `CS(=O)(=O)Oc1cccc(-c2cc(=O)c3ccccc3o2)c1`, the EC50 is reported as over 100 µg/mL. `COc1ccc(-c2oc3cc(O)cc(O)c3c(=O)c2O)cc1` [KAEMPFERIDE] showed an EC50 of 20 µg/mL (≈ 66.6 µM). `O=c1c(Cl)c(-c2ccccc2O)oc2ccccc12` was tested, and the EC50 was 22 µg/mL (≈ 80.7 µM). Work on `COc1cc(O)c(C2CC(=O)c3c(O)cc(O[C@@H]4O[C@H](CO[C@@H]5O[C@@H](C)[C@H](O)[C@@H](O)[C@H]5O)[C@@H](O)[C@H](O)[C@H]4O)cc3O2)cc1O` (stereo partly specified) yielded an EC50 of over 100 µg/mL. `Cc1ccc2oc(-c3ccccc3)c(Cl)c(=O)c2c1` was tested, and the EC50 was over 100 µg/mL. In the case of `COc1ccc(-c2cc(=O)c3cc(OC)c(OC)cc3o2)cc1O`, the EC50 is reported as 2 µg/mL (≈ 6.09 µM). `O=c1c(O)c(-c2ccccc2)oc2cc(O)cc(O)c12` [GALANGIN] was tested, and the EC50 was over 100 µg/mL. Work on `Cc1ccc(-c2oc3ccc(Cl)cc3c(=O)c2Cl)c(C(C)C)c1` yielded an EC50 of 22 µg/mL (≈ 63.4 µM). `COC1(O)C(=O)c2ccccc2OC1(OC)c1ccccc1` (stereo unspecified) gave an EC50 of 34 µg/mL (≈ 113 µM). For `C[C@@H]1O[C@@H](OC[C@H]2O[C@@H](Oc3c(-c4ccc(O)c(O)c4)oc4cc(O)cc(O)c4c3=O)[C@H](O)[C@@H](O)[C@@H]2O)[C@H](O)[C@H](O)[C@H]1O` [RUTIN], the EC50 was 26 µg/mL (≈ 42.6 µM). Work on `COc1c(O)cc2oc(-c3ccc(O)cc3)cc(=O)c2c1O` [HISPIDULIN] yielded an EC50 of 22 µg/mL (≈ 73.3 µM). Compound `COc1ccc2c(=O)c(O)c(-c3ccccc3)oc2c1` has an EC50 of 26 µg/mL (≈ 96.9 µM). `Cc1ccc(C(C)C)c(-c2oc3ccc(Cl)cc3c(=O)c2Cl)c1` gave an EC50 of 60 µg/mL (≈ 173 µM). In the case of `O=c1c(O)c(-c2ccc(O)c(O)c2)oc2cc(O[C@@H]3O[C@H](CO)[C@@H](O)[C@H](O)[C@H]3O)cc(O)c12` [QUERCIMERITRIN], the EC50 is reported as 28 µg/mL (≈ 60.3 µM). In the case of `COC1(c2ccccc2)Oc2ccccc2C(=O)C1(O)O` (stereo unspecified), the EC50 is reported as 19 µg/mL (≈ 66.4 µM). For `O=c1cc(-c2ccccc2)oc2cc(F)ccc12` [7-FLUOROFLAVONE], the EC50 was 22 µg/mL (≈ 91.6 µM). In the case of `O=c1c(O)c(-c2cc(O)c(O)c(O)c2)oc2cc(O)ccc12` [ROBINETIN], the EC50 is reported as 25 µg/mL (≈ 82.7 µM).

These compounds were tested on CCRF S-180 (assay: In vivo antitumor activity against mouse S180 cells). Conditions: not given.
Type: functional, organism-based
In the case of `O=C1c2cc(Cl)ccc2OC(Cl)(c2ccc(Cl)cc2)C1Cl` (stereo unspecified), the Activity is reported as “inactive”. For `C[C@@H]1O[C@@H](OC[C@H]2O[C@@H](Oc3cc(O)c4c(c3)OC(c3ccc(O)cc3)CC4=O)[C@H](O)[C@@H](O)[C@@H]2O)[C@H](O)[C@H](O)[C@H]1O` (stereo partly specified), the Activity was “inactive”.

These compounds were tested on L1210 (assay: In vivo antitumor activity against mouse L1210 cells). Conditions: not given.
Type: functional, organism-based
`COc1ccc2c(=O)c(C)c(-c3ccccc3)oc2c1CN(C)C.Cl` [DIMEFLINE HYDROCHLORIDE] was tested, and the Activity was “inactive”. `Cc1c(O)cc2c(c1O)C(=O)CC(c1ccc(O)cc1)O2` (stereo unspecified) was tested, and the Activity was “inactive”. `Cc1c(-c2ccccc2)oc2c(C(=O)OCCN3CCCCC3)cccc2c1=O.Cl` [FLAVOXATE HYDROCHLORIDE] was tested, and the Activity was “inactive”. In the case of `O=c1cc(-c2cccc(O)c2)oc2ccccc12`, the Activity is reported as “inactive”. In the case of `COc1cc(O)c(C2CC(=O)c3c(O)cc(O[C@@H]4O[C@H](CO[C@@H]5O[C@@H](C)[C@H](O)[C@@H](O)[C@H]5O)[C@@H](O)[C@H](O)[C@H]4O)cc3O2)cc1O` (stereo partly specified), the Activity is reported as “inactive”. With `COC1(O)C(=O)c2ccccc2OC1(OC)c1ccccc1` (stereo unspecified) the Activity was “inactive”.
